Laboratory results reported in publication PMC4284702, “Cloning and Characterization of Farnesyl Diphosphate Synthase Gene Involved in Triterpenoids Biosynthesis from Poria cocos” (International Journal of Molecular Sciences, 2014).

Molecular target: rPc-FPS (Pc-FPS, recombinant farnesyl diphosphate synthase of Poria cocos) (Wolfiporia cocos, UniProt K7DW87)
Test: GC of farnesol after acid phosphatase hydrolysis of product FPP
Format: biochemical
Details: 2 mM MgCl2, 5 mM DTT, 50 mM MOPS pH 7.5, 30 °C, 3 h

rPc-FPS (Pc-FPS, recombinant farnesyl diphosphate synthase of Poria cocos), sequence (K7DW87 entry or part of it): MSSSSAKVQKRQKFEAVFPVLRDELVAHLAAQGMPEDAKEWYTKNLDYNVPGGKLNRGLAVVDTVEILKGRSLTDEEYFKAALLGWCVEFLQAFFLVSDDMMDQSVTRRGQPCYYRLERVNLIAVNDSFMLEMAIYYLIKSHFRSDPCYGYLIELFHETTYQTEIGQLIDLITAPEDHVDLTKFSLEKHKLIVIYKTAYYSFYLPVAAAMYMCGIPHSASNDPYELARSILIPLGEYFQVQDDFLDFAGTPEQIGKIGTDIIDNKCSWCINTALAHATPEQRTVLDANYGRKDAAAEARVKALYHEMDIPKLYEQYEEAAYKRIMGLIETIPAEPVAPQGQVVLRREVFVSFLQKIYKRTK

Compound | GC of farnesol after acid phosphatase hydrolysis of product FPP (50 uM IPP, co-substrate 50 uM GPP) | GC of farnesol after acid phosphatase hydrolysis of product FPP (50 uM GPP, co-substrate 50 uM IPP)
C=C(C)CCOP(=O)(O)OP(=O)(O)O [IPP] | rPc-FPS could catalyze the formation of FPP from GPP and IPP | –
CC(C)=CCC/C(C)=C/COP(=O)(O)OP(=O)(O)O [GPP] | – | the purified rPc-FPS was used to catalyze GPP with IPP to produce FPP
